The text below walks through data of patent publication US8426370B2, “Diaryl hepatonoid-based compounds and use thereof” (priority 2008, dated 2013).

Series [1] has as its system CEF (chicken embryo fibroblasts).
For series [2], the system named is avian influenza virus KBNP-0028 (KCTC 10866BP). It counts as cell-based, A/chicken/Korea/SNU0028/2000(H9N2).

Structures are written as SMILES. Read-outs that look alike come from different tables or passages of the source.

For the compound `O=C(CCc1ccc(O)c(O)c1)C[C@H](CCc1ccc(O)c(O)c1)OC1OCC(O)C(O)C1OC(=O)/C=C/c1ccc(O)cc1` (stereo partly drawn) [12B-AJ-17A-1, (5S)-1,7-bis(3,4-dihydroxyphenyl)-3-heptanone-5-O-(2-coumaroyl)-β-D-xylopyranoside], the “cytotoxicity (in words)” value in series [1] was “no cytotoxicity”. Besides, the “antiviral activity (in words)” value in series [2] is “had antiviral activity”. The “Number of wells wherein hemagglutination occurs (among 6 wells)” value in series [2] (12.5 μg/mL), in series [2] (25 μg/mL), in series [2] (50 μg/mL) and in series [2] (100 μg/mL) was 3 in each case.
